In patent publication US20230121771A1, “A PHARMACEUTICAL COMBINATION OF AN ARTEMISININ COMPOUND, 5-AMINOLEVULINIC ACID OR METHYL-5-AMINOLEVULINIC ACID AND A CHEMOTHERAPEUTIC AGENT” (JLP Health GmbH, priority 2020, published 2023):

Columns and labels:
[1] = system: Myc overexpressing tumor organoids; assay: ROS/DHE staining of dissociated CNS-PNET tumor organoids; type: cell-based, human; conditions: especially in GFP-positive cancer cells
Experimental: Treated cells were collected, washed with 1x HBSS (without Ca2+ and Mg2+), incubated with 1mM DHE (Dihydroethidium (Hydroethidine), Invitrogen, D11347) in 1x HBSS for 45 min at 37° C., washed twice and counterstained with DAPI or a viability dye (eBioscience™ Fixable Viability Dye eFluor™ 780, 65-0865-18) for 10 min on ice. Cells were then collected, strained and analysed using flow cytometry for DHE in the red fluorescent spectrum (PE channel).
Cerebral (tumor) organoids were enzymatically and mechanically dissociated using 1x trypsin, 35-45 min incubation at 37° C., and gentle shaking. Organoids were singularised by careful resuspension, addition of differentiation medium and straining (Falcon Round-Bottom Tubes with Cell Strainer Cap, 5 mL, 35 µm nylon mesh cell strainer snap cap). Single cells in suspension were counterstained with DAPI or a viability dye (eBioscience™ Fixable Viability Dye eFluor™ 780, 65-0865-18), and analysed using flow cytometry (BD LSRFortessa HTS Cell Analyzer). The amounts of GFP-positive cells were analyzed.

Jurkat cells = assay: JC-1 staining of mitochondrial membrane potential; type: cell-based; conditions: 48 h, artemisinin 0.5 µM, 5-ALA 0.25 mM
Experimental: Cells were collected, washed with 1xPBS, incubated with 2 µM JC-1 in 1PBS (MitoProbe JC-1 Assay Kit-1, Invitrogen, M34152) for 35 min at 37° C., washed twice, and analysed using flow cytometry in the red (PE channel) and green (FITC channel) fluorescence spectrum.

[2] = system: human primary glioblastoma cell lines; assay: Survival of artemisinin treated primary human glioblastoma cells upon 5-ALA (CellTiter-Glo, 72 h); type: cell-based; conditions: three independently derived human primary glioblastoma cell lines
Experimental: […] Cell viability was assessed using automated cell counting (high-throughput flow cytometry), Alamar Blue staining (Invitrogen, DAL1100) or CellTiter-Glo Luminescent Assay (Promega, G7570, according to the manufacturer’s protocol) respectively.

[3] = system: neuroblastoma cells (SHSY5Y), Jurkat cells; assay: Cell survival by automated cell counting in SHSY5Y and Jurkat cells; type: cell-based; conditions: artemisinin 0.5 µM, 5-ALA 0.25 mM
Experimental: (§1) For dosage responses, cells were seeded in 96-wells (25.000/ 96-well, in triplicate -where indicated) and subjected to compounds for 48 h. Cell viability was assessed using automated cell counting (high-throughput flow cytometry), Alamar Blue staining (Invitrogen, DAL1100) or CellTiter-Glo Luminescent Assay (Promega, G7570, according to the manufacturer’s protocol) respectively.

mouse ESCs = assay: Cell survival of artemisinin treated mouse embryonic stem cells (Alamar Blue, 48 h); type: cell-based; conditions: artemisinin combined with acifluorfen or 5-ALA (0.5 mM)
Experimental: as §1

NCC(=O)CCC(=O)O [5-ALA, 5-amino-4-oxopentanoic acid]
ROS levels (DHE staining, FACS) [1]: slightly induced ROS production | mitochondrial polarisation (ΔΨm, JC-1) (Jurkat cells): increased mitochondrial polarisation | sensitivity to artemisinin cytotoxicity upon 5-ALA [2]: induced artemisinin hypersensitivity to artemisinin cytotoxicity | cell viability / cell death [3]: slightly reduced cell viability | susceptibility to artemisinin (cell survival) (mouse ESCs): increased the sensitivity to the anti-malarial compound
